Measurements: PubChem BioAssay AID330 (DTP/NCI, 2004)
Several values for one entry are separate records, joined by “and”; a condition that tells them apart may be missing. Equal values may be shown once. Inconclusive results and toxic doses are left out. The calls were made as follows: active = survival T/C of 150% or more; inactive = T/C below 125% in these data.

Tested on: P388 leukemia ip, CD2F1 mice, survival T/C
Assay: NCI In Vivo Anticancer Drug Screen. Data for tumor model P388 Leukemia (intraperitoneal) in CD2F1 (CDF1) mice
Settings: endpoint: median survival time, higher = longer survival
Experimental: The antitumor activity of compounds was measured in mice bearing transplantable tumors. Survival or tumor size were measured and the results are expressed as the measurement made in the treated group (T) divided by the measurement made in the vehicle treated control group (C). The tumor model used in this assay is P388 Leukemia (intraperitoneal) in CD2F1 (CDF1) mice

[1] = dose: 60.0 mg/kg/injection, schedule: Q01DX005 (ip), vehicle: saline with Tween-80
[2] = dose: 120.0 mg/kg/injection, schedule: Q01DX005 (ip), vehicle: saline with Tween-80
[3] = dose: 240.0 mg/kg/injection, schedule: Q01DX005 (ip), vehicle: saline with Tween-80
[4] = dose: 50.0 mg/kg/injection, schedule: Q01DX005 (ip), vehicle: Klucel (hydroxypropylcellulose) (HPC)
[5] = dose: 100.0 mg/kg/injection, schedule: Q01DX005 (ip), vehicle: Klucel (hydroxypropylcellulose) (HPC)
[6] = dose: 200.0 mg/kg/injection, schedule: Q01DX005 (ip), vehicle: Klucel (hydroxypropylcellulose) (HPC)
[7] = dose: 50.0 mg/kg/injection, schedule: Q01DX005 (ip), vehicle: saline with Tween-80
[8] = dose: 100.0 mg/kg/injection, schedule: Q01DX005 (ip), vehicle: saline with Tween-80
[9] = dose: 200.0 mg/kg/injection, schedule: Q01DX005 (ip), vehicle: saline with Tween-80
[10] = dose: 100.0 mg/kg/injection, schedule: Q01DX009 (ip), vehicle: Klucel (hydroxypropylcellulose) (HPC)
[11] = dose: 200.0 mg/kg/injection, schedule: Q01DX009 (ip), vehicle: Klucel (hydroxypropylcellulose) (HPC)
[12] = dose: 100.0 mg/kg/injection, schedule: Q04DX003 (ip), vehicle: Klucel (hydroxypropylcellulose) (HPC)
[13] = dose: 200.0 mg/kg/injection, schedule: Q04DX003 (ip), vehicle: Klucel (hydroxypropylcellulose) (HPC)
[14] = dose: 100.0 mg/kg/injection, schedule: Q04DX003 (ip), vehicle: saline with Tween-80
[15] = dose: 200.0 mg/kg/injection, schedule: Q04DX003 (ip), vehicle: saline with Tween-80
[16] = dose: 400.0 mg/kg/injection, schedule: Q04DX003 (ip), vehicle: saline with Tween-80

Measured: T/C

Cc1cc(=O)oc2ccc(C(=O)/C=C/N(C)C)c(O)c12
inactive: [1] 96 % of control | [2] 92 % of control | [3] 89 % of control

O=C1OC(Cc2ccccc2)=C(Cl)C(Cl)(Cc2ccccc2)C1Cl (configuration not stated)
inactive: dose: 100.0 mg/kg/injection, schedule: Q01DX001 (ip), vehicle: Klucel (hydroxypropylcellulose) (HPC) 100 % of control | dose: 200.0 mg/kg/injection, schedule: Q01DX001 (ip), vehicle: Klucel (hydroxypropylcellulose) (HPC) 108 % of control

OCc1cccc2c1C(O)c1ccccc1-2 (configuration not stated)
inactive: [4] 100 % of control | [5] 104 % of control | [6] 100 % of control

CC(=O)OCC12CCC(C)=CC1OC1C(N3CCOCC3)C(O)C2(C)C12CO2 (configuration not stated)
inactive: dose: 0.62 mg/kg/injection, schedule: Q04DX002 (ip), vehicle: water 123 % of control | dose: 1.25 mg/kg/injection, schedule: Q04DX002 (ip), vehicle: water 123 % of control | dose: 2.5 mg/kg/injection, schedule: Q04DX002 (ip), vehicle: water 123 % of control

CNC(=O)OC1CC2CCCCC2C([N+](C)(C)C)C1 (configuration not stated)
inactive: dose: 12.5 mg/kg/injection, schedule: Q01DX009 (ip), vehicle: saline 105 % of control | dose: 25.0 mg/kg/injection, schedule: Q01DX009 (ip), vehicle: saline 112 % of control | dose: 50.0 mg/kg/injection, schedule: Q01DX009 (ip), vehicle: saline 100 % of control and 106 % of control

NC(=S)SCCC(=O)N1CCCC1
inactive: dose: 25.0 mg/kg/injection, schedule: Q01DX005 (ip), vehicle: Klucel (hydroxypropylcellulose) (HPC) 103 % of control | [4] 97 % of control | [5] 99 % of control | [6] 101 % of control

Cc1c/c(=N\O)c2c(=O)ccoc2n1O
inactive: dose: 50.0 mg/kg/injection, schedule: Q01DX009 (ip), vehicle: suspension in saline 99 % of control | dose: 100.0 mg/kg/injection, schedule: Q01DX009 (ip), vehicle: suspension in saline 98 % of control | dose: 200.0 mg/kg/injection, schedule: Q01DX009 (ip), vehicle: suspension in saline 97 % of control

CCC(/C=C/c1ccccc1)=N\Nc1ccc(Cl)c(Cl)c1
inactive: [7] 104 % of control | [8] 96 % of control | [9] 91 % of control

O=C(CCOCCCOCCC(=O)OCCCBr)OCCCBr
inactive: [4] 102 % of control | [5] 98 % of control | [6] 98 % of control

CC(C)(C)OC(=O)NC(CC(Cc1ccccc1)C(=O)O)C(=O)NC(CC(Cc1ccccc1)C(=O)O)C(=O)NC(CC(Cc1ccccc1)C(=O)O)C(=O)NCC(=O)Oc1ccc([N+](=O)[O-])cc1 (configuration not stated)
inactive: dose: 12.5 mg/kg/injection, schedule: Q01DX005 (ip), vehicle: saline with Tween-80 99 % of control | dose: 25.0 mg/kg/injection, schedule: Q01DX005 (ip), vehicle: saline with Tween-80 91 % of control | [7] 89 % of control

CCCCCCCCCCCCN(O)C(=O)c1ccccc1
inactive: dose: 50.0 mg/kg/injection, schedule: Q01DX009 (ip), vehicle: Klucel (hydroxypropylcellulose) (HPC) 99 % of control and 115 % of control | [10] 104 % of control | [11] 108 % of control and 96 % of control

NP1(Oc2ccc(F)cc2)=NP(N)(Oc2ccc(F)cc2)=NP(Oc2ccc(F)cc2)(Oc2ccc(F)cc2)=N1 (configuration not stated)
inactive: [1] 90 % of control | [2] 96 % of control | [3] 89 % of control

O=c1[nH]cnc2cc(N3CCN(Cc4ccccc4)CC3)c([N+](=O)[O-])cc12
inactive: [12] 102 % of control | [13] 98 % of control | dose: 400.0 mg/kg/injection, schedule: Q04DX003 (ip), vehicle: Klucel (hydroxypropylcellulose) (HPC) 106 % of control

NC(CCC(=O)NC(CSSCC(NC(=O)CCC(N)C(=O)O)C(=O)O)C(=O)O)C(=O)O (configuration not stated)
inactive: dose: 12.5 mg/kg/injection, schedule: Q01DX005 (ip), vehicle: saline 94 % of control | dose: 25.0 mg/kg/injection, schedule: Q01DX005 (ip), vehicle: saline 99 % of control | dose: 50.0 mg/kg/injection, schedule: Q01DX005 (ip), vehicle: saline 99 % of control

COc1ccc(-c2csc(=[N+]3CCCCC3)s2)cc1
inactive: dose: 3.13 mg/kg/injection, schedule: Q01DX009 (ip), vehicle: water 100 % of control | dose: 6.25 mg/kg/injection, schedule: Q01DX009 (ip), vehicle: water 105 % of control and 110 % of control

N=C(N)N=Nc1cc(O)c(NN=C(N)N)cc1O
inactive: dose: 1.56 mg/kg/injection, schedule: Q01DX005 (ip), vehicle: saline with Tween-80 102 % of control | dose: 3.13 mg/kg/injection, schedule: Q01DX005 (ip), vehicle: saline with Tween-80 99 % of control | dose: 6.25 mg/kg/injection, schedule: Q01DX005 (ip), vehicle: saline with Tween-80 102 % of control

O=C(OC1COC(Br)C(OC(=O)c2ccccc2)C1OC(=O)c1ccccc1)c1ccccc1 (configuration not stated)
inactive: [10] 100 % of control | [11] 100 % of control | dose: 400.0 mg/kg/injection, schedule: Q01DX009 (ip), vehicle: Klucel (hydroxypropylcellulose) (HPC) 90 % of control

CCOC(=O)c1sc2nc(C)[nH]c(=O)c2c1C
inactive: [7] 99 % of control

COc1ccc(-c2c(CC(=O)O)c3cc(OC)ccc3n2Cc2ccc(Cl)cc2)cc1
inactive: dose: 50.0 mg/kg/injection, schedule: Q01DX009 (ip), vehicle: saline with Tween-80 101 % of control | dose: 100.0 mg/kg/injection, schedule: Q01DX009 (ip), vehicle: saline with Tween-80 100 % of control | [14] 90 % of control | dose: 200.0 mg/kg/injection, schedule: Q01DX009 (ip), vehicle: saline with Tween-80 100 % of control | [15] 90 % of control | dose: 400.0 mg/kg/injection, schedule: Q01DX009 (ip), vehicle: saline with Tween-80 91 % of control | [16] 90 % of control

Cn1c(=O)ccc2c(=O)c3c(ccc4ccccc43)oc21
inactive: [7] 94 % of control | [8] 92 % of control | [9] 91 % of control

CNC(=O)N1CCOC1c1ccc(NC(=O)OC)cc1 (configuration not stated)
inactive: [1] 96 % of control | [2] 90 % of control | [3] 95 % of control

N#CC1CCC(c2ccccc2)(c2ccccc2)C1=O (configuration not stated)
inactive: [12] 94 % of control | [13] 95 % of control

CCOC(=O)NC(NC(=O)OCC)c1ccc(Cl)cc1
inactive: dose: 100.0 mg/kg/injection, schedule: Q04DX003 (ip), vehicle: saline 99 % of control | dose: 200.0 mg/kg/injection, schedule: Q04DX003 (ip), vehicle: saline 94 % of control | dose: 400.0 mg/kg/injection, schedule: Q04DX003 (ip), vehicle: saline 107 % of control

CCOC(=O)c1ccc(NC(=O)Nc2n[nH]c(NC(=O)Nc3ccc(C(=O)OCC)cc3)n2)cc1
inactive: dose: 12.5 mg/kg/injection, schedule: Q01DX009 (ip), vehicle: distilled water + Tween-80 95 % of control | dose: 25.0 mg/kg/injection, schedule: Q01DX009 (ip), vehicle: distilled water + Tween-80 114 % of control | dose: 50.0 mg/kg/injection, schedule: Q01DX009 (ip), vehicle: distilled water + Tween-80 89 % of control | dose: 100.0 mg/kg/injection, schedule: Q01DX009 (ip), vehicle: distilled water + Tween-80 88 % of control

CC(O)(CO)C(C)(O)c1cn(O)c(=N)c(C(=O)OCc2ccccc2)n1 (configuration not stated)
inactive: dose: 100.0 mg/kg/injection, schedule: Q01DX001 (ip), vehicle: saline 99 % of control | dose: 200.0 mg/kg/injection, schedule: Q01DX001 (ip), vehicle: saline 95 % of control | dose: 400.0 mg/kg/injection, schedule: Q01DX001 (ip), vehicle: saline 88 % of control

C=C1OC(C)=C(C(=O)OC(C)(C)C)C1C (configuration not stated)
inactive: dose: 100.0 mg/kg/injection, schedule: Q01DX001 (ip), vehicle: saline with Tween-80 106 % of control | dose: 200.0 mg/kg/injection, schedule: Q01DX001 (ip), vehicle: saline with Tween-80 102 % of control | dose: 400.0 mg/kg/injection, schedule: Q01DX001 (ip), vehicle: saline with Tween-80 105 % of control

O=C1OC(C(F)(F)F)=NC1Cc1ccccc1 (configuration not stated)
inactive: [14] 107 % of control | [15] 98 % of control | [16] 101 % of control
